Laboratory results taken from patent publication US12286442B2, “Methods and materials for increasing transcription factor eb polypeptide levels” (University of Pittsburgh—Of the Commonwealth System of …, priority 2019, dated 2025).
Entries after “also recorded” stand apart in the source; their conditions may differ.

Key:
TFEB [1] = assay: Confocal imaging of TFEB localization in MLE12 cells stably expressing TFEB-EGFP; format: cell-based, murine; conditions: dose dependent, 18 hours / 24 hours
Protocol: (§1) FIGS. 2A-C. BC1753 increases TFEB polypeptide levels. A. The structure of BC1753 is provided. B. MLE12 cells stably expressing TFEB-EGFP were treated with the indicated amounts of BC1753 for 24 hours before immunoblotting for TFEB-GFP and β-actin. C. MLE12 cells stably expressing TFEB-EGFP were treated with the indicated amounts of BC1753 for 24 hours before imaging by confocal microscopy (scale bar=10 μm).
(§2) BC1753 (FIG. 2A) was tested for its ability to increase TFEB polypeptide levels. Briefly, murine lung epithelial cells (MLE12) stably expressing TFEB-EGFP were treated with BC1753 in a dose dependent manner for 18 hours. Cells were then collected and assayed by immunoblotting for TFEB-GFP protein levels (FIG. 2B). Murine lung epithelial cells (MLE12) stably expressing TFEB-EGFP were treated with […] in a dose dependent manner for 18 hours. Cells were then fixed with 4% PFA followed by DAPI staining. TFEB localization was imaged on the GFP channel along with the DAPI signal using a Nikon A1 confocal microscope (FIG. 2C).

TFEB [2] = assay: Immunoblotting for TFEB-GFP protein levels in MLE12 cells stably expressing TFEB-EGFP; format: cell-based, murine; conditions: dose dependent, 18 hours / 24 hours
Protocol: as §1, §2

Beas2B cells = assay: Lysosome quantity in Beas2B cells (light microscope, lysotracker Red confocal microscopy); format: cell-based, human; conditions: 18 hours, 1 μM or indicated concentrations
Protocol: FIGS. 4A-B. Compound 178 (BC1834) and Compound 160 (BC18200) increased lysosome quantity. A. Beas2B cells were treated with Cmpd. 178, Cmpd. 160, or the GSK3b inhibitor TWS119 (1 μM for 18 hours). Cells were then imaged through light microscope. B. Beas2B cells were treated with Cmpd. 178 for 18 hours at the indicated concentrations. Cells were then stained with lysotracker Red (100 nM) for 30 minutes. Cells then were washed and imaged through confocal microscopy.

[3] = test system: b-hexosaminidase (a lysosomal enzyme); assay: Secreted b-hexosaminidase activity normalized with cellular b-hexosaminidase activity in Beas2B cells; format: cell-based, human; conditions: indicated concentration, 18 hours
Protocol: (§3) FIGS. 5A-B. Compound 133 and Compound 115 increased lysosomal protein expression and secretion. A. Beas2B cells were treated with Cmpd. 133 at 10 μM for 24 hours. Cells then were collected and assayed for lysosomal protein gene expression. B. Beas2B cells were treated with Cmpd. 115 at the indicated concentration for 18 hours. Secreted b-hexosaminidase activity (a lysosomal enzyme) then was measured and normalized with cellular b-hexosaminidase activity.

BEAS-2B cells = assay: Toxicity: compound concentration needed to induce greater than 50 percent of cell loss; format: cell-based, human; conditions: 18 hours incubation
In short: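 Reported value is the concentration giving greater than 50 percent cell loss, grouped into bins (≥25 μM; between 1 and 25 μM; ≤1 μM as "+++"). Measured by high-content imaging of DAPI-stained BEAS-2B TFEB-EGFP cells fixed after 18 h compound exposure.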

[4] = test system: lysosomal protein gene expression; assay: Lysosomal protein gene expression in Beas2B cells; format: cell-based, human; conditions: 10 μM for 24 hours
Protocol: as §3

TFEB [5] = assay: High content screen measuring TFEB nuclear accumulation (TFEB nuclear/cytosol ratio) in BEAS-2B cells stably expressing TFEB-EGFP; format: cell-based, human; conditions: 18 hours incubation
In short: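 Readout: lowest compound concentration giving a 25% rise in nuclear/cytosol TFEB-GFP ratio, from DAPI-masked nuclear and mask-expanded cytosolic signals. Cells (BEAS-2B, TFEB-EGFP stable, ~2300–2500/well) rested 8 hours, then treated 18 hours with compound serial dilutions in 2% FBS medium before PFA fixation and DAPI staining.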

GFP-72Q (Huntingtin) = assay: GFP-Huntingtin levels in SH5Y cells stably transfected with GFP-72Q (confocal imaging, immunoblot); format: cell-based; conditions: SH5Y cells stably expressing GFP-Huntingtin (72Q), indicated amounts, 24 hours
Protocol: FIGS. 6A-B. Compound 178 reduced Huntingtin gene expression. A-B. SH5Y cells stably transfected with GFP-72Q (Huntingtin) were treated with the indicated amounts of Cmpd. 178 for 24 hours. Cells then were imaged with a confocal microscope or collected and assayed for protein expression using a GFP-Huntingtin immunoblot.
Compound 178 (BC1834) was tested for the ability to reduce Huntingtin polypeptide levels within cells. Briefly, Compound 178 was administered to SH5Y cells stably expressing GFP-Huntingtin (72Q).

| SMILES | nuclear TFEB polypeptide accumulation (confocal microscopy) (TFEB [1]) | total TFEB polypeptide levels within cells (TFEB-GFP immunoblot) (TFEB [2]) | lysosome quantity (Beas2B cells) | secretion of the lysosomal enzyme beta hexosaminidase [3] | toxicity (compound concentration needed to induce greater than 50 percent of cell loss) (BEAS-2B cells) | lysosomal protein expression [4] | efficacy (minimal compound concentration needed to increase TFEB nuclear/cytosol ratio by 25%) (TFEB [5]) | GFP-Huntingtin polypeptide levels (GFP-72Q (Huntingtin)) |
| --- | --- | --- | --- | --- | --- | --- | --- | --- |
| COc1ccc(-n2c(=O)c3ccc(C(=O)NCCc4ccccc4)cc3n(CC(=O)Nc3ccc(C)cc3)c2=O)cc1 [BC1753] | increased | increases; also recorded: drastically increased | – | – | – | – | – | – |
| c1ccc2c(Nc3ccc4[nH]ncc4c3)nc(-c3ccncc3)nc2c1 [Compound 160] | – | – | increase | increase | ++ (cell loss of greater than 50 percent at a concentration less than 25 μM and greater than 1 μM was represented as) | increase | +++ (“+++” equals ≤1 μM) | – |
| Fc1cccc(Nc2nc(-c3ccncc3)nc3ccccc23)c1 [Compound 178] | – | – | increase | increase | + (cell loss of greater than 50 percent at a concentration that equals or is greater than 25 μM was represented as) | increase | +++ (“+++” equals ≤1 μM) | dose dependently reduced |
